Test results as given in ChEMBL document CHEMBL1141668, “Synthesis and biological activity of imidazopyridine anticoccidial agents: Part II” (Eur J Med Chem, 2008).

Tests used:
Eimeria acervulina [1] = assay: Anticoccidial activity against Eimeria acervulina in chickens assessed as reduction of oocysts at 2 ppm measured after 8 days by ExMAC assay relative to untreated control; format: functional; set-up: scale not given: the % may be the effect or the level left
Eimeria mitis [2] = assay: Anticoccidial activity against Eimeria mitis in chickens assessed as reduction of oocysts at 1 ppm measured after 8 days by ExMAC assay relative to untreated control; format: functional; set-up: scale not given: the % may be the effect or the level left
Eimeria mitis [3] = assay: Anticoccidial activity against Eimeria mitis in chickens assessed as reduction of oocysts at 2 ppm measured after 8 days by ExMAC assay relative to untreated control; format: functional; set-up: scale not given: the % may be the effect or the level left
Eimeria maxima [4] = assay: Anticoccidial activity against Eimeria maxima in chickens assessed as reduction of oocysts at 1 ppm measured after 8 days by ExMAC assay relative to untreated control; format: functional; set-up: scale not given: the % may be the effect or the level left
Eimeria maxima [5] = assay: Anticoccidial activity against Eimeria maxima in chickens assessed as reduction of oocysts at 4 ppm measured after 8 days by ExMAC assay relative to untreated control; format: functional; set-up: scale not given: the % may be the effect or the level left
Eimeria tenella [6] = assay: Anticoccidial activity against Eimeria tenella in chickens assessed as reduction of oocysts at 2 ppm measured after 8 days by ExMAC assay relative to untreated control; format: functional; set-up: scale not given: the % may be the effect or the level left
Eimeria maxima [7] = assay: Anticoccidial activity against Eimeria maxima in chickens assessed as reduction of oocysts at 2 ppm measured after 8 days by ExMAC assay relative to untreated control; format: functional; set-up: scale not given: the % may be the effect or the level left
Eimeria mitis [8] = assay: Anticoccidial activity against Eimeria mitis in chickens assessed as reduction of oocysts at 4 ppm measured after 8 days by ExMAC assay relative to untreated control; format: functional; set-up: scale not given: the % may be the effect or the level left
[9] = target: cGMP-dependent protein kinase (Eimeria tenella, UniProt Q8MMZ8); assay: Inhibition of Eimeria tenella cGMP-dependent protein kinase
Chain of cGMP-dependent protein kinase (Q8MMZ8 whole entry): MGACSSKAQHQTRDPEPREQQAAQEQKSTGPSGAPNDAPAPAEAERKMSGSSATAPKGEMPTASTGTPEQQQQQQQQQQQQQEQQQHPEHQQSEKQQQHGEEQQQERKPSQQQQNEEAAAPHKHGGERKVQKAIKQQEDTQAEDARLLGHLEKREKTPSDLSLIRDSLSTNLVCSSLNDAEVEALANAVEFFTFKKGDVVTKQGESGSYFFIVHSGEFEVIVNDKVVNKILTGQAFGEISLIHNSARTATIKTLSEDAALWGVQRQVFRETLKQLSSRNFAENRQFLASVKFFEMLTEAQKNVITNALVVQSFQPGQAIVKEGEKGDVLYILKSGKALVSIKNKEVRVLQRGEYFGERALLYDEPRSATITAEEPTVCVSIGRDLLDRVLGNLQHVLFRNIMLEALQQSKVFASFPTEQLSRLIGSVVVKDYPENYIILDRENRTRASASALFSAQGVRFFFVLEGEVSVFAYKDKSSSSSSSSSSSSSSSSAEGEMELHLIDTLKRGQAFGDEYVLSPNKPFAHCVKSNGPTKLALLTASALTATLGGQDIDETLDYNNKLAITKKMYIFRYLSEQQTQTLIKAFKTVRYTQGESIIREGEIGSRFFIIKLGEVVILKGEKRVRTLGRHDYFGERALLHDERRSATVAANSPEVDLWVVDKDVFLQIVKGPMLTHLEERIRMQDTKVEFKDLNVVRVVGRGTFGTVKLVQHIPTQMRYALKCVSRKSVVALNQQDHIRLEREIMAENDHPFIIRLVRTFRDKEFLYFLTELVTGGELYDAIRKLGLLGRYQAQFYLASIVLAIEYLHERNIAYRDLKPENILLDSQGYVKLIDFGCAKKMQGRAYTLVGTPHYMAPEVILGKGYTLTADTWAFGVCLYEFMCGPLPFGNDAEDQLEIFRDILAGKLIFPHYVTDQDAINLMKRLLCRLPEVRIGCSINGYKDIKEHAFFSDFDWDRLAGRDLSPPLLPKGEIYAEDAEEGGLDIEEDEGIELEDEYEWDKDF

Eimeria acervulina [10] = assay: Anticoccidial activity against Eimeria acervulina in chickens assessed as reduction of oocysts at 1 ppm measured after 8 days by ExMAC assay relative to untreated control; format: functional; set-up: scale not given: the % may be the effect or the level left
Eimeria mitis [11] = assay: Anticoccidial activity against Eimeria mitis in chickens assessed as reduction of oocysts at 6.25 ppm measured after 8 days by ExMAC assay relative to untreated control; format: functional; set-up: scale not given: the % may be the effect or the level left
Eimeria acervulina [12] = assay: Anticoccidial activity against Eimeria acervulina in chickens assessed as reduction of oocysts at 6.25 ppm measured after 8 days by ExMAC assay relative to untreated control; format: functional; set-up: scale not given: the % may be the effect or the level left
Eimeria acervulina [13] = assay: Anticoccidial activity against Eimeria acervulina in chickens assessed as reduction of oocysts at 8 ppm measured after 8 days by ExMAC assay relative to untreated control; format: functional; set-up: scale not given: the % may be the effect or the level left
Eimeria maxima [14] = assay: Anticoccidial activity against Eimeria maxima in chickens assessed as reduction of oocysts at 6.25 ppm measured after 8 days by ExMAC assay relative to untreated control; format: functional; set-up: scale not given: the % may be the effect or the level left
Eimeria mitis [15] = assay: Anticoccidial activity against Eimeria mitis in chickens assessed as reduction of oocysts at 8 ppm measured after 8 days by ExMAC assay relative to untreated control; format: functional; set-up: scale not given: the % may be the effect or the level left
Eimeria maxima [16] = assay: Anticoccidial activity against Eimeria maxima in chickens assessed as reduction of oocysts at 8 ppm measured after 8 days by ExMAC assay relative to untreated control; format: functional; set-up: scale not given: the % may be the effect or the level left
Eimeria tenella [17] = assay: Anticoccidial activity against Eimeria tenella in chickens assessed as reduction of oocysts at 8 ppm measured after 8 days by ExMAC assay relative to untreated control; format: functional; set-up: scale not given: the % may be the effect or the level left
Eimeria tenella [18] = assay: Anticoccidial activity against Eimeria tenella in chickens assessed as reduction of oocysts at 6.25 ppm measured after 8 days by ExMAC assay relative to untreated control; format: functional; set-up: scale not given: the % may be the effect or the level left
Eimeria maxima [19] = assay: Anticoccidial activity against Eimeria maxima in chickens assessed as reduction of oocysts at 25 ppm measured after 8 days by ExMAC assay relative to untreated control; format: functional; set-up: scale not given: the % may be the effect or the level left
Eimeria acervulina [20] = assay: Anticoccidial activity against Eimeria acervulina in chickens assessed as reduction of oocysts at 25 ppm measured after 8 days by ExMAC assay relative to untreated control; format: functional; set-up: scale not given: the % may be the effect or the level left
Eimeria acervulina [21] = assay: Anticoccidial activity against Eimeria acervulina in chickens assessed as reduction of oocysts at 12.5 ppm measured after 8 days by ExMAC assay relative to untreated control; format: functional; set-up: scale not given: the % may be the effect or the level left
Eimeria mitis [22] = assay: Anticoccidial activity against Eimeria mitis in chickens assessed as reduction of oocysts at 12.5 ppm measured after 8 days by ExMAC assay relative to untreated control; format: functional; set-up: scale not given: the % may be the effect or the level left
Eimeria mitis [23] = assay: Anticoccidial activity against Eimeria mitis in chickens assessed as reduction of oocysts at 25 ppm measured after 8 days by ExMAC assay relative to untreated control; format: functional; set-up: scale not given: the % may be the effect or the level left
Eimeria tenella [24] = assay: Anticoccidial activity against Eimeria tenella in chickens assessed as reduction of oocysts at 12.5 ppm measured after 8 days by ExMAC assay relative to untreated control; format: functional; set-up: scale not given: the % may be the effect or the level left
Eimeria tenella [25] = assay: Anticoccidial activity against Eimeria tenella in chickens assessed as reduction of oocysts at 25 ppm measured after 8 days by ExMAC assay relative to untreated control; format: functional; set-up: scale not given: the % may be the effect or the level left
Eimeria maxima [26] = assay: Anticoccidial activity against Eimeria maxima in chickens assessed as reduction of oocysts at 12.5 ppm measured after 8 days by ExMAC assay relative to untreated control; format: functional; set-up: scale not given: the % may be the effect or the level left

| SMILES | IC50 [9] [nM] | Activity (Eimeria mitis [11]) [%] | Activity (Eimeria acervulina [12]) [%] | Activity (Eimeria maxima [14]) [%] | Activity (Eimeria tenella [18]) [%] | Activity (Eimeria maxima [19]) [%] | Activity (Eimeria acervulina [20]) [%] | Activity (Eimeria acervulina [21]) [%] | Activity (Eimeria mitis [22]) [%] | Activity (Eimeria mitis [23]) [%] | Activity (Eimeria tenella [24]) [%] | Activity (Eimeria tenella [25]) [%] | Activity (Eimeria maxima [26]) [%] | also measured |
| --- | --- | --- | --- | --- | --- | --- | --- | --- | --- | --- | --- | --- | --- | --- |
| CC(c1ccn2c(-c3ccnc(N)n3)c(-c3ccc(F)cc3)nc2c1)N(C)C (single isomer, unassigned; enantiomer A) | 0.28 | – | – | – | – | – | – | – | – | – | – | – | – | Activity (Eimeria acervulina [1]): <50%; Activity (Eimeria mitis [2]): 50%; Activity (Eimeria mitis [3]): <50%; Activity (Eimeria maxima [4]): 50%; Activity (Eimeria maxima [5]): <50%; Activity (Eimeria tenella [6]): <50%; Activity (Eimeria maxima [7]): 50%; Activity (Eimeria mitis [8]): <50%; Activity (Eimeria acervulina [10]): <50% |
| CN(C)C(C)(C)c1ccn2c(-c3ccnc(N)n3)c(-c3ccc(F)cc3)nc2c1 | 0.11 | 80 | 100 | 80 | 100 | – | – | – | – | – | – | – | – | Activity (Eimeria acervulina [13]): 100%; Activity (Eimeria mitis [15]): <50%; Activity (Eimeria maxima [16]): 100%; Activity (Eimeria tenella [17]): 100% |
| Nc1nccc(-c2c(-c3ccc(F)cc3)nc3cc(C4CCN(CC5CC5)CC4)ccn23)n1 | 0.095 | 80 | 80 | 80 | 80 | 80 | 100 | 80 | 80 | 80 | 100 | 100 | 80 | – |
| CN(C)CC(C)(C)c1ccn2c(-c3ccnc(N)n3)c(-c3ccc(F)cc3)nc2c1 | 0.2 | <50 | <50 | <50 | <50 | <50 | 80 | 80 | <50 | 80 | 80 | 100 | <50 | – |
| CCC(c1ccn2c(-c3ccnc(N)n3)c(-c3ccc(F)cc3)nc2c1)N(C)C (centres undefined) | 0.13 | – | – | – | – | – | – | 100 | 100 | – | 100 | – | 100 | Activity (Eimeria acervulina [13]): 80%; Activity (Eimeria mitis [15]): <50%; Activity (Eimeria maxima [16]): 50%; Activity (Eimeria tenella [17]): 50% |
| Nc1nccc(-c2c(-c3ccc(F)cc3)nc3cc(C4CCN(CCO)CC4)ccn23)n1 | 0.044 | <50 | <50 | <50 | 99 | 50 | 99 | 50 | 80 | <50 | 99 | 99 | 80 | – |
| Nc1nccc(-c2c(-c3ccc(F)cc3)nc3cc(C4CCN(Cc5ccccc5)CC4)ccn23)n1 | 0.11 | <50 | <50 | 80 | <50 | 100 | <50 | 80 | <50 | <50 | 80 | 80 | 80 | – |
| CN(C)CCCc1ccn2c(-c3ccnc(N)n3)c(-c3ccc(F)cc3)nc2c1 | 0.27 | <50 | <50 | <50 | <50 | 100 | 80 | 80 | <50 | 80 | 80 | 80 | <50 | – |
| CN(C)CC(F)c1ccn2c(-c3ccnc(N)n3)c(-c3ccc(F)cc3)nc2c1 (centres undefined) | 0.59 | <50 | <50 | 100 | 80 | 100 | 100 | 80 | 50 | 100 | 80 | 100 | 100 | – |
| CN(C)CCc1ccn2c(-c3ccnc(N)n3)c(-c3ccc(F)cc3)nc2c1 | 0.46 | <50 | 80 | 50 | 100 | 100 | 100 | 100 | 80 | 100 | 100 | 100 | 100 | – |
